Results from patent publication US10611750B2, “Tetrahydroquinoline compositions as bet bromodomain inhibitors” (FORMA Therapeutics, Inc., priority 2013, dated 2020).

Key:
[1] = test system: acute myelocytic leukemia (AML) cell line MV4-11; test: Oncology cell growth assay (3-day proliferation, CellTiter-Glo); assay type: cell-based; details: Homo sapiens, MV4-11, 72 h, MV4-11 cells, 3000 cells/well, compounds listed under IC50 range headings, read-out: MV411 IC50 (gIC50, inhibition of proliferation)
Experimental: The impact of Example compounds on cancer cell proliferation was determined using the acute myelocytic leukemia (AML) cell line MV4-11 (ATCC) in a 3-day proliferation assay. MV4-11 cells were maintained in RPMI 1640 media supplemented with 10% FBS at 37° C. and an atmosphere of 5% CO2. For compound testing, compound dilutions series were prepared in DMSO via a 3-fold serial dilution from 2 mM to 0.001 mM in 384-well white flat bottom plates. The final compound concentrations in the wells were 10, 3.3, 1.1, 0.37, 0.12, 0.041, 0.013 and 0.0045 μM. MV4-11 cells were plated at a density of 3000 cells/well in final volume of 50 μl culture media and incubated for 72 hours. […] Luminescent signal from the CellTiter-Glo assay was read on an EnVision multilabel plate reader (PerkinElmer). Values for the concentration that inhibited cell growth by 50% (gIC50) between the DMSO control and background control (no cells) were determined using IDBS Activity Base software with a four parameter logistic curve fit by the equation y=A+((B−A)/(1+((C/x)^D))), wherein A denotes the bottom plateau of the curve, B denotes the top plateau of the curve, C denotes the x value at the middle of the curve, D denotes the slope factor, x denotes the original known x values, and y denotes the original known y values. Data was fitted using the Levenburg Marquardt algorithm.

[2] = target: T1, BRD4 Bromodomain 1 (BRD4 BD1) (Homo sapiens, UniProt O60885); test: AlphaScreen binding assay, BRD4 BD1; details: His-tagged BRD4 BD1 50 nM, biotinylated H4 (1-21) K5/8/12/16 tetra-acetylated peptide 50 nM, compounds listed under IC50 range headings
T1 construct: 44-168 and BRD4 BD2
Experimental: The binding of Example compounds to BRD4 Bromodomain 1 and BRD4 Bromodomain 2 was assessed using 384-well AlphaScreen assay technology. His-epitope tagged BRD4 BD144-168 and BRD4 BD2333-460 were cloned, expressed, and purified to homogeneity. BRD4 BD1 and BRD4 BD2 binding and inhibition was assessed by monitoring the engagement of biotinylated Histone H4 (1-21) K5/8/12/16 tetra-acetylated peptide with the targets using the AlphaScreen technology (PerkinElmer). Specifically, in a 384-well black or white flat bottom plate, BRD4 BD1 (50 nM final) or BRD4 BD2 (100 nM final) was combined with peptide (50 nM final for BD1 or 100 nM final for BD2) in 50 mM HEPES (pH 7.3), 100 mM NaCl, 0.1% (w/v) BSA, and 0.01% (w/v) Triton X-100 either in the presence of DMSO (final 1.25% DMSO) or compound dilution series in DMSO. Alpha streptavidin donor beads and Nickel-chelate acceptor beads were added to a final concentration of 10 μg/ml each. After a minimum of 1 hour equilibration, plates were read on a BMG PHERAstar FS multi-label reader (BMG LabTech). The half maximal inhibitory concentration (IC50) values were calculated using IDBS Activity Base software with a four parameter logistic curve fit by the equation y=A+((B−A)/(1+((C/x)^D))), wherein A denotes the bottom plateau of the curve, B denotes the top plateau of the curve, C denotes the x value at the middle of the curve, D denotes the slope factor, x denotes the original known x values, and y denotes the original known y values. Data was fitted using the Levenburg Marquardt algorithm.

Compound | IC50 [1] | IC50 [2]
C[C@H]1CCc2c(ccc(-c3cnoc3)c2Oc2ccccc2)N1C(=O)C1CC1 [I-231, (S)-cyclopropyl(6-(isoxazol-4-yl)-2-methyl-5-phenoxy-3,4-dihydroquinolin-1 (2H)-yl)methanone] | < 500 nM | 1000 to 10000 nM
COC(=O)N1c2ccc(-c3cnn([C@@H]4CCNC[C@H]4F)c3)c(Oc3ccc(F)cc3)c2CC[C@@H]1C [I-368, methyl (2S)-5-(4-fluorophenoxy)-6-{1-[(3R,4R)-3-fluoropiperidin-4-yl]-1H-pyrazol-4-yl}-2-methyl-1,2,3,4-tetrahydroquinoline-1-carboxylate] | < 500 nM | 100 to 1000 nM
COC(=O)N1c2ccc(-c3cnn(C4CCNCC4)c3)c(Oc3ccc(OC)cc3)c2CC[C@@H]1C [I-199, (S)-methyl 5-(4-methoxyphenoxy)-2-methyl-6-(1-(piperidin-4-yl)-1H-pyrazol-4-yl)-3,4-dihydroquinoline-1(2H)-carboxylate] | < 500 nM | 100 to 1000 nM
C[C@H]1CCc2c(ccc(-c3cnn(C4CCNCC4)c3)c2Oc2cccc(F)n2)N1C(=O)C1CC1 [I-97, (S)-cyclopropyl(5-(6-fluoropyridin-2-yloxy)-2-methyl-6-(1-(piperidin-4-yl)-1H-pyrazol-4-yl)-3,4-dihydroquinolin-1(2H)-yl)methanone] | < 500 nM | 100 to 1000 nM
COc1ccccc1Oc1c(-c2cnn(C3CCNCC3)c2)ccc2c1CC[C@H](C)N2C(=O)C1CC1 [I-194, (S)-cyclopropyl(5-(2-methoxyphenoxy)-2-methyl-6-(1-(piperidin-4-yl)-1H-pyrazol-4-yl)-3,4-dihydroquinolin-1(2H)-yl)methanone] | < 500 nM | 100 to 1000 nM
C[C@H]1CCc2c(ccc(-c3cn[nH]c3)c2OC2CCC2)N1C(=O)C1CC1 [I-54, (S)-(5-cyclobutoxy-2-methyl-6-(1H-pyrazol-4-yl)-3,4-dihydroquinolin-1 (2H)-yl)(cyclopropyl)methanone] | < 500 nM | 100 to 1000 nM
C[C@H]1CCc2c(ccc(-c3cn(C)nn3)c2Oc2ccccc2F)N1C(=O)C1CC1 [I-320, (S)-cyclopropyl(5-(2-fluorophenoxy)-2-methyl-6-(1-methyl-1H-1,2,3-triazol-4-yl)-3,4-dihydroquinolin-1(2H)-yl)methanone] | < 500 nM | 100 to 1000 nM
C[C@H]1CCc2c(ccc(-c3cnn(C4CCNCC4)c3)c2Oc2cc(F)cc(F)c2)N1C(=O)C1CC1 [I-183, (S)-cyclopropyl(5-(3,5-difluorophenoxy)-2-methyl-6-(1-(piperidin-4-yl)-1H-pyrazol-4-yl)-3,4-dihydroquinolin-1(2H)-yl)methanone] | < 500 nM | 100 to 1000 nM
C[C@H]1CCc2c(ccc(-c3cnn(C4CNC4)c3)c2Oc2cc(F)ccc2F)N1C(=O)C1CC1 [I-272, (S)-(6-(1-(azetidin-3-yl)-1H-pyrazol-4-yl)-5-(2,5-difluorophenoxy)-2-methyl-3,4-dihydroquinolin-1(2H)-yl)(cyclopropyl)methanone] | < 500 nM | 100 to 1000 nM
COC(=O)N1c2ccc(-c3cnn(C4CNC4)c3)c(Oc3ccc(F)c(F)c3)c2CC[C@@H]1C [I-192, (S)-methyl 6-(1-(azetidin-3-yl)-1H-pyrazol-4-yl)-5-(3,4-difluorophenoxy)-2-methyl-3,4-dihydroquinoline-1(2H)-carboxylate] | < 500 nM | 100 to 1000 nM
COc1cccc(Oc2c(-c3cnn(C4CCNCC4)c3)ccc3c2CC[C@H](C)N3C(C)=O)n1 [I-336, (S)-1-(5-(6-methoxypyridin-2-yloxy)-2-methyl-6-(1-(piperidin-4-yl)-1H-pyrazol-4-yl)-3,4-dihydroquinolin-1 (2H)-yl)ethanone] | < 500 nM | 100 to 1000 nM
COc1cccc(Oc2c(-c3cnn(C4CCNCC4)c3)ccc3c2CC[C@H](C)N3C(=O)C2CC2)n1 [I-98, (S)-cyclopropyl(5-(6-methoxypyridin-2-yloxy)-2-methyl-6-(1-(piperidin-4-yl)-1H-pyrazol-4-yl)-3,4-dihydroquinolin-1(2H)-yl)methanone] | < 500 nM | 100 to 1000 nM
